Assay results reported in patent publication EP1370276B1, “INTERCELLULAR COMMUNICATION FACILITATING COMPOUNDS AND THEIR MEDICAL USE” (Zealand Pharma A/S, priority 2001, dated 2002).

What was measured:
human osteoblastic cells = experiment: Intercellular calcium waves after mechanical stimulation, human osteoblastic cells; assay type: cell-based
Description: (§1) Human osteblast cells (hOB): Cells were isolated from human bone marrow obtained by puncture of the posterior iliac spine of healthy volunteers (aged 20-36): 10-15 ml marrow material was collected in 15 ml PBS+Ca,Mg (Life Technologies, Cat.No. 14040) with 100 U/ml Heparin (Sigma, Cat.No. H-3149). The mononuclear fraction of the marrow was isolated on a Lymphoprep gradient (Nycomed Pharma, Cat.No. 1001967), by centrifugation at 2200 rpm for 30 min. After harvesting, the mononuclear fraction was washed once with culture medium and centrifuged at 1800 rpm for 10 min. Subsequently cells were counted and plated in culture medium at 8x10^6 cells/100 mm dish. hOB medium (all reagents obtained from Life Technologies): MEM w/o Phenol Red w/ Glutamax (Cat.No. 041-93013) supplemented with 10% heat inactivated fetal calf serum (Cat.No. 10106) and 0.1% Penicillin/Streptomycin (Cat.No. 15140). Medium was changed the following day and the cells were cultured at 37°C in 5%CO2 with medium change every 7 days. After 3-4 weeks of culture the cells had reached 70% confluence. The medium was then supplemented with 100 nM Dexamethasone (Sigma, Cat.No. D-4902) for 7 days. Cells were then plated for video imaging experiments: a 25 mm #1 glass coverslip was
(§2) placed in a 35 mm dish (or each well of a 6-well multidish), cells were plated at 2.5×10^5 cells/coverslip and cultured for 2-3 days before use. […]

[1] = tested on: alkaline phosphatase (ALP) activity of human osteoblasts; experiment: Alkaline phosphatase assay in human osteoblasts; assay type: cell-based
Description: as §1, with “The medium was then supplemented with 100 nM Dexamethasone (Sigma, Cat.No. D-4902) for 7 days. Cells were then plated for video imaging experiments: a 25 mm #1 glass coverslip was” left out
• Day 1: Cells were plated in 96-well plates at a conc. of 8000 cells/well (hOB) or 3000 cells/well (ROS) in 200 µl normal culture medium. • Day 2: Medium was changed on the cells. • Day 4: (Day 3 for ROS): Cells were washed with 200 µl MEM, 0.1% BSA (Sigma, Cat.No. A-9418). […] Absorbance was measured using a plate reader at 405 nm.

[2] = tested on: calcium-induced arrythmias; experiment: Calcium-induced arrhythmia model in mice (time to 2nd degree AV-block); assay type: in vivo; conditions: mouse, in vivo
Description: The antiarrhythmic effects of compounds of this invention were tested in an in vivo model of calcium-induced arrythmias according to the model of Lynch et al. ^[37]. […]. Commercial solutions of hypnorm and midazolam were diluted 1:1 in distilled water and one part diluted Hypnorm® is mixed with one part diluted midazolam.
The anaesthesia was induced by s.c. administration in a dose of […]. An i.v. cannula was inserted into the tail vein. The lead II ECG signal was recorded continuously by positioning of a stainless steel ECG electrodes on the right forelimb and on the left hind limb. The ground electrode was placed on the right hind limb. The signal was amplified (x 5.000-10.000) and filtered (0.1-150 Hz) via a Hugo Sachs Electronic model 689 ECG module. The analogue signal was digitised via a 12 bit data acquisition board (Data Translation model DT321) and sampled at 1000 Hz using the Notocord HEM 3.1 software for Windows NT. After a 10-min equilibration period, the test sample of drug was injected into the tail vein. Mice pre-treated with vehicle were tested as a measure of the control level in untreated animals. The injection volume was 100 µl in all experiments. Infusion of CaCl2 (30 mg/ml, 0.1 ml/min ≈ 100 mg/kg/min (calciumchlorid-2-hydrat, Riedel-de Haën, Germany)) was started 3 min after i.v. administration of drug or vehicle. The time lag to onset of 2nd degree AV-block was determined as the time from the start of CaCl2 infusion until the first arrhythmic event occured. An event of 2nd degree AV-block was defined as intermittent failure of the AV conduction characterised by a P-wave without the concomitant QRS complex.
Responses were expressed relative to the time until 2nd degree AV-block occurred in vehicle treated mice.

human osteoblast = experiment: Lucifer Yellow microinjection dye transfer, human osteoblasts; assay type: cell-based; conditions: 10 minutes, after 48 hours hypoxia 3-6% O2 (7 cells before)
Description: as §1, §2

ROS 17/2.8 cells = experiment: Intercellular calcium waves after mechanical stimulation, ROS 17/2.8 cells; assay type: cell-based, rat; conditions: 10^-8 M, 10 minutes, after 48 hours hypoxia 3-6% O2 (2.2 cells before)
Description: ROS 17/2.8 cells: Cells were cultured in 100 mm dishes at 37°C with 5% CO2 and medium change every 2-3 days. ROS medium (all reagents obtained from Life Technologies): MEM (Cat.No. 31095) supplemented with 10% heat-inactivated calf serum (Cat.No. 16170), 1% NEAA (Cat.No. 11140), 1% Sodium Pyruvate (Cat.No. 11360), 1% L-Glutamine (Cat.No. 25030) and 0.1% Penicillin/Streptomycin (Cat.No. 15140). For video imaging experiments, cells were plated on coverslips at 2-3×10^5 cells/coverslip and cultured for 2-3 days before use.
The cells cultured on coverslips were loaded with 5 µM fura-2-AM (Molecular Probes, Cat.No. F-1221), for 30 minutes at 37°C, and incubated in fresh medium for 20 minutes. Coverslips were then affixed to a PDMI-2 culture chamber (Medical Systems Corp.), maintained at 37°C with superfused CO2, on a Zeiss Axiovert microscope. Intercellular calcium waves were induced by mechanical stimulation of a single cell using a borosilicate glass micro pipette affixed to an Eppendorf 5171 micromanipulator. Imaging was performed using a MetaMorph imaging system (Universal Imaging). The excitation light (340 and 380 nm) was provided by a monochromator (T.I.L.L. Photonics GmbH). Images were acquired with an intensified CCD camera (Dage MTI) and digitized with a Matrox MVP image processing board.

Substance: Ac-D-Tyr-D-Pro-D-4Hyp-Gly-D-Ala-Gly-NH2 [Compound 2]
- average number of cells in the calcium wave (human osteoblastic cells; 10^-8 M, medium without glucose, after ATP desensitization (1.4 cells before)): 2.9 cells
- average number of cells in the calcium wave (human osteoblastic cells; 10^-8 mol/l, 10 minutes, after ATP desensitization (4.5 cells before)): 6.2 cells
- ALP activity ([1]; 1 × 10^-13 to 1 × 10^-6, normal culture conditions, 4 days): increased ALP activity at most of the concentrations tested
- stimulation of ALP activity during hypoxia compared with normoxia ([1]; 5% O2, four days, 10^-11 to 10^-8 mol/l): about 15%
- CaCl2 mice Score [2]: 3
- dye transfer (number of cells containing Lucifer Yellow) (human osteoblast): 9 cells
- average number of cells in the calcium wave (ROS 17/2.8 cells): 5.4 cells
